Measured values reported in publication PMC4171606, “A novel copper(I) complex induces ER-stress-mediated apoptosis and sensitizes B-acute lymphoblastic leukemia cells to chemotherapeutic agents” (Oncotarget, 2014).
Like-named read-outs stand apart in the source and are kept apart here.

Experiments:
[1] = test system: SEM cells; experiment: Combined drugs analysis, MTT 48 h, Chou and Talalay; assay type: cell-based; conditions: Homo sapiens
Protocol: (§1) SEM and RS4;11 cell lines were exposed to dexamethasone (Dex), daunorubicine (Dauno), cytarabine (Ara-C) and vincristine (Vcr) in the presence or absence of CP, at fixed combination ratios.
(§2) To test potential synergistic, additive, or antagonistic effects of the combination of CP and drugs commonly used in B-ALL treatment, we performed MTT experiments as follows.
(§3) SEM, and RS4;11 cells were treated for 48 hours with one of the most used chemotherapeutic agents: cytarabine (Aractyn, Pfizer), daunorubicin (Pfizer), vincristine (Pfizer), or dexamethasone (Sigma-Aldrich). CP was also added to each drug solution, at fixed combination ratios. Cell viability was determined after 48 hours of treatment by MTT test as described above. To determine the synergistic, additive, or antagonistic effects of the drug combinations, we used CalcuSyn software (version 2.0, Biosoft, Cambridge, United Kingdom) based on the method of the combination index (CI) described by Chou and Talalay. Synergy, additivity and antagonism were defined by a CI<1, CI=1, or CI>1, respectively.

[2] = test system: RS4;11 cells; experiment: as above; assay type: cell-based; conditions: Homo sapiens
Protocol: as §1, §2, §3

[3] = test system: RS4;11 and SEM cells; experiment: Annexin-V/PI assay with CP in presence of cycloheximide, 12 h; assay type: cell-based, human; conditions: CHX 2 μg/ml with CP 2.5 μM
Protocol: To investigate if proteasome inhibition and ER stress could be responsible for CP-induced cell death, we assayed apoptosis and ER stress markers in the presence of cycloheximide (CHX), an inhibitor of protein synthesis that antagonizes ER-stress agents. The inhibition of protein synthesis reduced the accumulation of unfolded proteins in the ER and therefore ER-stress induced apoptosis.
Furthermore, CHX induced a remarkable reduction of GRP78 and CHOP expression, induced after 12 h of treatment with CP, when CHOP and GRP78 were highly expressed (Figure 5, panel C).
FIGURE 5 CP induces ER stress mediated apoptosis SEM (A) and RS4;11 (B) cells were incubated with CP (2.5 μM) in the presence or absence of cycloheximide (CHX) for 12 h, at the concentration of 2 μg/ml. Cells were analyzed by flow cytometry after double staining with Annexin-V-FITC and PI. Data are represented as mean ± S.E.M of three independent experiments. *p<0.05. (B) Western blot analysis showing the expression of GRP78 and CHOP after treatment of RS4;11 and SEM cells with CP (2.5 μM) for 12 h in the presence or absence of CHX (2 μg/ml).

[4] = test system: human leukemia cell lines; experiment: MTT growth inhibition, panel of twelve leukemia cell lines, 72 h; assay type: cell-based; conditions: all cell lines, same experimental conditions as CP, data not shown
Protocol: [Cu(thp)4][PF6] (CP) was evaluated for its growth inhibition activity on a panel of twelve different human leukemia cell lines (five B-acute lymphoblastic leukemia, three T-acute lymphoblastic leukemia, three acute myeloid leukemia and one chronic myeloid leukemia). Cells were treated for 72 h with CP and cell viability was evaluated by MTT test. […] This abnormal high expression of proteasomal proteins and mRNA seem to be correlated to the hyperproliferation of these cancer cells and to the sensitivity towards proteasome inhibitors.
The human leukemia cell lines RS 4;11, SEM, REH, RCH-ACV, MHH-CALL2, Jurkat, CCRF-CEM, HSB2, HL-60, K562, THP-1, MV4;11 were purchased from the American Type Culture Collection. Cells were cultured in RPMI 1640 (Life Technologies, Italy) supplemented with 10% fetal bovine serum (FBS), glutamine (2 mM; Life Technologies, Italy), penicillin (100 U/ml; Life Technologies, Italy) and streptomycin (100 μg/ml; Life Technologies, Italy), and maintained at 37°C in a humidified atmosphere with 5% CO2. The cytotoxic activity of CP was determined using a standard 3-[4,5-dimethylthiazol-2-yl]-2,5-diphenyltetrazodium bromide (MTT) based colorimetric assay (Sigma-Aldrich, Italy). Briefly, cells were seeded at a density of 2×10^4 cells/well in 96-well microtiter plates. After 24 h, cells were exposed to the test compound. After different times, cell survival was determined by the addition of an MTT solution as previously described.

[5] = test system: RS4;11 and SEM cells; experiment: MTT viability with CP in presence of pan-caspase inhibitor, 48 h; assay type: cell-based, human; conditions: z-VAD.fmk 100 μM with CP 2.5 μM and 5 μM
Protocol: FIGURE 2 CP induces caspase-dependent apoptosis without mitochondria involvement (A) Assessment of mitochondrial membrane potential (ΔΨmt) after treatment of RS4;11 and SEM cells with CP (2.5 μM) for the indicated times. Cells were stained with the fluorescent probe JC-1. Data are represented as mean ± S.E.M. of three independent experiments. (B) Flow cytometric analysis of RS4;11 and SEM cells treated with CP (2.5 μM) for 24 h showing cytochrome c labeled with a monoclonal antibody conjugated to FITC. Representative image of three experiments with similar results. (C) Cells were incubated with CP 2.5 μM and 5 μM in the presence or absence of the pan-caspase inhibitor z-VAD.fmk (100 μM). Cell viability was determined after 48 h by MTT assay. Data are represented as mean ± S.E.M. of three independent experiments performed in triplicate. *p<0.01 vs CP alone. (D) Western blot analysis of Bcl-2, cleaved caspase-12, caspase-9, cleaved caspase-7, caspase-3 and PARP after treatment of SEM and RS4;11 cells with CP (2.5 μM) for the indicated times. To confirm equal protein loading, each membrane was stripped and reprobed with anti-β-actin antibody.
We therefore evaluated whether the inhibition of caspases with the pan-caspase inhibitor z-VAD.fmk would prevent cell death.

[6] = SEM, MTT, drug alone or with CP at fixed molar ratio, mean ± SE, read-out: GI50
[7] = RS4;11, 48 h, MTT, drug alone or with CP at fixed molar ratio, mean ± SE, read-out: GI50

GI50 [2, 7] [nM] | SMILES | GI50 [1, 6] [nM] | also measured
– | COc1cccc2c1C(=O)c1c(O)c3c(c(O)c1C2=O)C[C@@](O)(C(C)=O)C[C@@H]3O[C@H]1C[C@H](N)[C@H](O)[C@H](C)O1 [Dauno, daunorubicin] | – | GI50 [1]: 96 ± 14.1 nM; GI50 ([2]; RS4-11, 48 h): 19.2 ± 1.9 nM
0.12 ± 0.025 | C[C@@H]1C[C@H]2[C@@H]3CCC4=CC(=O)C=C[C@]4(C)[C@@]3(F)[C@@H](O)C[C@]2(C)[C@@]1(O)C(=O)CO [Dex, dexamethasone] | 643 ± 44.2 | –
21 ± 7.1 | Nc1ccn([C@@H]2O[C@H](CO)[C@@H](O)[C@@H]2O)c(=O)n1 [AraC, cytarabine] | 22.3 ± 1.8 | –
– | C[C@@H]1C[C@@H]([C@H](O)CC2CC(=O)NC(=O)C2)C(=O)[C@@H](C)C1 [CHX, cycloheximide] | – | protection from CP induced cell death [3]: significant protection from CP induced cell death
0.071 ± 0.042 | CC[C@]1(O)C[C@H]2CN(CCc3c([nH]c4ccccc34)[C@@](C(=O)OC)(c3cc4c(cc3OC)N(C=O)[C@H]3[C@@](O)(C(=O)OC)[C@H](OC(C)=O)[C@]5(CC)C=CCN6CC[C@]43[C@@H]65)C2)C1 [Vcr, vincristine] | 13.1 ± 1.2 | –
– | [Cl][Cu] [CuCl] | – | concentration giving only a slight reduction of cell viability [4]: > 250 µM
– | CC(C)[C@H](NC(=O)OCc1ccccc1)C(=O)N[C@@H](C)C(=O)NC(CC(=O)O)C(=O)CF (mixture of isomers) [z-VAD.fmk, N-[(benzyloxy)carbonyl]-L-Val-Ala-DL-Asp-fluoromethylketone] | – | cell viability of CP-treated cells [5]: significantly increased cell viability
– | [Cl][Cu][Cl] [CuCl2] | – | concentration giving only a slight reduction of cell viability [4]: > 250 µM
